Measurements: PubChem BioAssay AID248 (DTP/NCI, 2004)
Values joined by “and” are separate entries in the source; they are usually repeats but may differ in a detail not shown here. Identical values can stand only once. Inconclusive results and toxic doses are left out.

Test system: L1210 leukemia ip in BDF1 mice, survival T/C
Assay: NCI In Vivo Anticancer Drug Screen. Data for tumor model L1210 Leukemia (intraperitoneal) in B6D2F1 (BDF1) mice
Conditions: endpoint: mean survival time, higher = longer survival
How it was run: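 Mice bearing the transplanted tumor received compound or vehicle. Survival of the treated group was divided by that of the vehicle-treated control group to give the ratio.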

[1] = dose: 100.0 mg/kg/injection, schedule: Q04DX003 (ip), vehicle: Klucel (hydroxypropylcellulose) (HPC)
[2] = dose: 100.0 mg/kg/injection, schedule: Q04DX003 (ip), vehicle: saline with Tween-80
[3] = dose: 200.0 mg/kg/injection, schedule: Q04DX003 (ip), vehicle: saline with Tween-80
[4] = dose: 400.0 mg/kg/injection, schedule: Q04DX003 (ip), vehicle: saline with Tween-80
[5] = dose: 50.0 mg/kg/injection, schedule: Q01DX001 (ip), vehicle: saline
[6] = dose: 100.0 mg/kg/injection, schedule: Q01DX001 (ip), vehicle: saline
[7] = dose: 200.0 mg/kg/injection, schedule: Q01DX001 (ip), vehicle: saline
[8] = dose: 50.0 mg/kg/injection, schedule: Q04DX003 (ip), vehicle: saline
[9] = dose: 100.0 mg/kg/injection, schedule: Q04DX003 (ip), vehicle: saline
[10] = dose: 200.0 mg/kg/injection, schedule: Q04DX003 (ip), vehicle: saline
[11] = dose: 400.0 mg/kg/injection, schedule: Q04DX003 (ip), vehicle: saline
[12] = dose: 100.0 mg/kg/injection, schedule: Q01DX001 (ip), vehicle: Klucel (hydroxypropylcellulose) (HPC)
[13] = dose: 200.0 mg/kg/injection, schedule: Q01DX001 (ip), vehicle: Klucel (hydroxypropylcellulose) (HPC)
[14] = dose: 100.0 mg/kg/injection, schedule: Q04DX002 (ip), vehicle: Klucel (hydroxypropylcellulose) (HPC)
[15] = dose: 200.0 mg/kg/injection, schedule: Q04DX002 (ip), vehicle: Klucel (hydroxypropylcellulose) (HPC)
[16] = dose: 400.0 mg/kg/injection, schedule: Q04DX002 (ip), vehicle: Klucel (hydroxypropylcellulose) (HPC)

CCOC(=O)c1ccc(N=CN(C)C)cc1
T/C [1]: 100 % of control | T/C (dose: 200.0 mg/kg/injection, schedule: Q04DX003 (ip), vehicle: Klucel (hydroxypropylcellulose) (HPC)): 95 % of control | T/C (dose: 400.0 mg/kg/injection, schedule: Q04DX003 (ip), vehicle: Klucel (hydroxypropylcellulose) (HPC)): 107 % of control

COc1cc2c(c(OC)c1OC)CN(CC1COc3ccccc3O1)CC2 (centres undefined)
T/C [2]: 98 % of control | T/C [3]: 101 % of control | T/C [4]: 96 % of control

CCSC(C(Nc1ccc([N+](=O)[O-])cc1[N+](=O)[O-])C(O)C(O)C(O)CO)n1cc(C)c(=O)[nH]c1=O (centres undefined)
T/C [5]: 97 % of control | T/C [6]: 100 % of control | T/C [7]: 100 % of control | T/C (dose: 400.0 mg/kg/injection, schedule: Q01DX001 (ip), vehicle: saline): 100 % of control

N=C(N)SC1c2ccccc2-c2ccccc21
T/C (dose: 10.0 mg/kg/injection, schedule: Q04DX002 (ip), vehicle: Klucel (hydroxypropylcellulose) (HPC)): 97 % of control | T/C (dose: 20.0 mg/kg/injection, schedule: Q04DX002 (ip), vehicle: Klucel (hydroxypropylcellulose) (HPC)): 101 % of control | T/C (dose: 40.0 mg/kg/injection, schedule: Q04DX002 (ip), vehicle: Klucel (hydroxypropylcellulose) (HPC)): 101 % of control

O/N=C/C=N/O.O/N=C/C=N/O.[Cl][Rh][Cl]
T/C (dose: 50.0 mg/kg/injection, schedule: Q01DX009 (ip), vehicle: saline): 107 % of control | T/C [8]: 100 % of control | T/C (dose: 100.0 mg/kg/injection, schedule: Q01DX009 (ip), vehicle: saline): 101 % of control | T/C [9]: 104 % of control | T/C (dose: 200.0 mg/kg/injection, schedule: Q01DX009 (ip), vehicle: saline): 95 % of control | T/C [10]: 102 % of control | T/C (dose: 400.0 mg/kg/injection, schedule: Q01DX009 (ip), vehicle: saline): 94 % of control | T/C [11]: 98 % of control

O=C(O)COc1ccc(C(=O)c2cc(Br)ccc2OCC(=O)O)cc1
T/C (dose: 100.0 mg/kg/injection, schedule: Q01DX001 (ip), vehicle: carboxymethylcellulose (CMC)): 105 % of control | T/C (dose: 200.0 mg/kg/injection, schedule: Q01DX001 (ip), vehicle: carboxymethylcellulose (CMC)): 98 % of control | T/C (dose: 400.0 mg/kg/injection, schedule: Q01DX001 (ip), vehicle: carboxymethylcellulose (CMC)): 103 % of control

CC(C)(C)N=O
T/C [12]: 103 % of control | T/C [13]: 114 % of control

Cc1ccc(NC(=O)NCCCOc2ccc(N3C(N)=NC(N)=NC3(C)C)cc2Cl)cc1S(=O)(=O)F
T/C [5]: 93 % of control | T/C [6]: 98 % of control | T/C [7]: 97 % of control

CCC[CH2][Pb]([CH2]CCC)([CH2]CCC)[N](C#N)C#N
T/C (dose: 25.0 mg/kg/injection, schedule: Q04DX002 (sc), vehicle: olive oil, sesame oil, peanut oil): 101 % of control | T/C (dose: 50.0 mg/kg/injection, schedule: Q04DX002 (sc), vehicle: olive oil, sesame oil, peanut oil): 101 % of control | T/C (dose: 100.0 mg/kg/injection, schedule: Q04DX002 (sc), vehicle: olive oil, sesame oil, peanut oil): 96 % of control and 97 % of control

CCOC(=O)C1CN(C2CCCCC2)CCC1=O (centres undefined)
T/C (dose: 18.75 mg/kg/injection, schedule: Q01DX009 (ip), vehicle: saline): 93 % of control | T/C (dose: 37.5 mg/kg/injection, schedule: Q01DX009 (ip), vehicle: saline): 92 % of control | T/C (dose: 37.5 mg/kg/injection, schedule: Q04DX003 (ip), vehicle: saline): 98 % of control | T/C (dose: 75.0 mg/kg/injection, schedule: Q01DX001 (ip), vehicle: saline): 102 % of control | T/C (dose: 75.0 mg/kg/injection, schedule: Q01DX009 (ip), vehicle: saline): 93 % of control | T/C (dose: 75.0 mg/kg/injection, schedule: Q04DX003 (ip), vehicle: saline): 100 % of control | T/C (dose: 150.0 mg/kg/injection, schedule: Q01DX001 (ip), vehicle: saline): 95 % of control | T/C (dose: 150.0 mg/kg/injection, schedule: Q04DX003 (ip), vehicle: saline): 94 % of control

Cc1cc(Cl)ccc1OC(=O)NC1CCCCC1
T/C [14]: 107 % of control | T/C [15]: 96 % of control | T/C [16]: 107 % of control

CO/N=C(/CSS(=O)(=O)O)c1ccccc1
T/C [14]: 96 % of control | T/C [15]: 96 % of control | T/C [16]: 96 % of control

CCN(CC)CCCC(C)Nc1ccnc2ccc(-c3ccccc3)cc12 (centres undefined)
T/C (dose: 5.0 mg/kg/injection, schedule: Q01DX001 (ip), vehicle: saline): 100 % of control | T/C (dose: 10.0 mg/kg/injection, schedule: Q01DX001 (ip), vehicle: saline): 100 % of control | T/C (dose: 20.0 mg/kg/injection, schedule: Q01DX001 (ip), vehicle: saline): 91 % of control | T/C (dose: 40.0 mg/kg/injection, schedule: Q01DX001 (ip), vehicle: saline): 96 % of control | T/C (dose: 80.0 mg/kg/injection, schedule: Q01DX001 (ip), vehicle: saline): 104 % of control

COc1ccc(-c2sc(/N=C/c3cc(Br)cc(Br)c3O)c(C#N)c2C)cc1OC
T/C (dose: 100.0 mg/kg/injection, schedule: Q01DX001 (ip), vehicle: saline with Tween-80): 89 % of control | T/C [2]: 93 % of control | T/C (dose: 200.0 mg/kg/injection, schedule: Q01DX001 (ip), vehicle: saline with Tween-80): 91 % of control | T/C [3]: 98 % of control and 90 % of control | T/C [4]: 90 % of control

CCOC(=O)C1(C(=O)OCC)C(C)CC2Nc3cc4c(cc3C(=O)N21)OCO4 (centres undefined)
T/C (dose: 25.0 mg/kg/injection, schedule: Q04DX003 (ip), vehicle: Klucel (hydroxypropylcellulose) (HPC)): 94 % of control | T/C (dose: 50.0 mg/kg/injection, schedule: Q04DX003 (ip), vehicle: Klucel (hydroxypropylcellulose) (HPC)): 101 % of control | T/C [1]: 97 % of control

CC(C)C1(C(=O)O)SCCCS1
T/C [8]: 100 % of control | T/C [9]: 110 % of control | T/C [10]: 102 % of control | T/C [11]: 98 % of control

O=C(O)c1cc(I)cc(I)c1I
T/C [14]: 105 % of control | T/C [15]: 88 % of control | T/C [16]: 102 % of control

O=C(CI)Nc1cccc(NC(=O)C(=O)O)c1
T/C (dose: 20.0 mg/kg/injection, schedule: Q04DX003 (ip), vehicle: Klucel (hydroxypropylcellulose) (HPC)): 95 % of control | T/C (dose: 40.0 mg/kg/injection, schedule: Q04DX003 (ip), vehicle: Klucel (hydroxypropylcellulose) (HPC)): 101 % of control

N#Cc1ncc(C(Cl)Cl)nc1Cl
T/C [9]: 101 % of control | T/C [10]: 92 % of control

N#CCCSCCc1ccccc1
T/C (dose: 75.0 mg/kg/injection, schedule: Q01DX009 (ip), vehicle: saline with Tween-80): 91 % of control | T/C (dose: 150.0 mg/kg/injection, schedule: Q01DX009 (ip), vehicle: saline with Tween-80): 96 % of control

CCOC(=O)C(C)[P+](c1ccccc1)(c1ccccc1)c1ccccc1 (centres undefined)
T/C (dose: 1.5 mg/kg/injection, schedule: Q01DX009 (ip), vehicle: saline): 108 % of control | T/C (dose: 1.5 mg/kg/injection, schedule: Q04DX003 (ip), vehicle: saline): 98 % of control | T/C (dose: 3.0 mg/kg/injection, schedule: Q01DX009 (ip), vehicle: saline): 106 % of control | T/C (dose: 3.0 mg/kg/injection, schedule: Q04DX003 (ip), vehicle: saline): 108 % of control | T/C (dose: 6.0 mg/kg/injection, schedule: Q04DX003 (ip), vehicle: saline): 123 % of control

O=C1c2ccccc2-c2ccccc2C12N=Nc1ccccc12 (centres undefined)
T/C (dose: 25.0 mg/kg/injection, schedule: Q04DX002 (ip), vehicle: Klucel (hydroxypropylcellulose) (HPC)): 101 % of control | T/C (dose: 50.0 mg/kg/injection, schedule: Q04DX002 (ip), vehicle: Klucel (hydroxypropylcellulose) (HPC)): 97 % of control | T/C [14]: 101 % of control

CCOC(=O)[C@H]1CCC[C@@H](NC(=O)N(CCCl)N=O)C1
T/C (dose: 5.0 mg/kg/injection, schedule: Q01DX001 (ip), vehicle: other): 108 % of control | T/C (dose: 10.0 mg/kg/injection, schedule: Q01DX001 (ip), vehicle: other): 123 % of control | T/C (dose: 20.0 mg/kg/injection, schedule: Q01DX001 (ip), vehicle: other): 194 % of control | T/C (dose: 31.0 mg/kg/injection, schedule: Q01DX001 (ip), vehicle: other): 329 % of control | T/C (dose: 40.0 mg/kg/injection, schedule: Q01DX001 (ip), vehicle: other): 305 % of control | T/C (dose: 62.0 mg/kg/injection, schedule: Q01DX001 (ip), vehicle: other): 254 % of control

CC1CN=C(c2ccc([N+](=O)[O-])cc2)S1 (centres undefined)
T/C [12]: 100 % of control | T/C [13]: 95 % of control | T/C (dose: 400.0 mg/kg/injection, schedule: Q01DX001 (ip), vehicle: Klucel (hydroxypropylcellulose) (HPC)): 94 % of control
